Assay results published in patent US20160257697A1, “THIOPHENE-SUBSTITUTED TETRACYCLIC COMPOUNDS AND METHODS OFUSE THEREOF FOR THE TREATMENT OF VIRAL DISEASES” (priority 2013, published 2016).
Where two headings read alike, the source gives them in different places.

Key:
Assay in all cases: microbe, parasite or virus in culture
Format in all cases: cell-based, Hepatitis C virus (HCV)
HCV replicon 1B = conditions: Replicon Assay B
HCV replicon 1AQ30D = conditions: Replicon Assay B
HCV replicon 1AY93H = conditions: read-out: 1A Y93H IC50, Replicon Assay A
Procedure, shortened: (§1)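 Three-day treatment of replicon cells (2000/well, 5% FBS, 0.5% DMSO), followed by TaqMan RT-PCR of replicon RNA with cyclophilin as internal control.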

HCV replicon 1A = conditions: Replicon Assay A
Procedure, shortened: as §1

HCV replicon 2B = conditions: read-out: 2B IC50, Replicon Assay A
Procedure, shortened: as §1

[1] = Hepatitis C virus, read-out: 1A Q30D IC50 (nM), replicon 1AQ30D
[2] = read-out: 1A Q30D IC50, replicon 1AQ30D

## COC(=O)N[C@H](C(=O)N1CCC[C@H]1c1ncc(-c2cc(F)c3c(c2)OC(c2ccc(C(C)(C)O)s2)n2c-3cc3cc(-c4cnc([C@@H]5CCCN5C(=O)[C@@H](NC(=O)OC)C(C)C)[nH]4)ccc32)[nH]1)C(C)C (single isomer, unassigned) [Compound 84]
HCV replicon 1B; replicon 1B
  IC50: 2.5 pM
HCV replicon 1AQ30D; [1]
  IC50: 0.5 nM
HCV replicon 1AY93H; replicon 1AY93H
  IC50: 12 pM
HCV replicon 1A; replicon 1A
  IC50: 3.3 pM
HCV replicon 2B; replicon 2B
  IC50: 12 pM

## COC(=O)NC(C(=O)N1CCC[C@H]1c1ncc(-c2ccc3c(c2)cc2n3C(c3ccc(C(C)C)s3)Oc3cc(-c4cnc([C@@H]5CCCN5C(=O)[C@@H](NC(=O)OC)C(C)C)[nH]4)cc(C)c3-2)[nH]1)C1C[C@@H](C)O[C@@H](C)C1 (single isomer, unassigned) [Compound 366]
HCV replicon 1B; Hepatitis C virus, replicon 1B
  IC50: 1.5 pM
HCV replicon 1AQ30D; [1]
  IC50: 0.0759 nM
HCV replicon 1AY93H; replicon 1AY93H
  IC50: 12.3 pM
HCV replicon 1A; replicon 1A
  IC50: 1.9 pM
HCV replicon 2B; replicon 2B
  IC50: 5.3 pM

## COC(=O)N[C@H](C(=O)N1CCC[C@H]1c1ncc(-c2cc(F)c3c(c2)OC(c2ccc(CC4CC4)s2)n2c-3cc3cc(-c4cnc([C@@H]5CCCN5C(=O)[C@@H](NC(=O)OC)C5CCOCC5)[nH]4)ccc32)[nH]1)C(C)C (single isomer, unassigned) [Compound 357]
HCV replicon 1B; replicon 1B
  IC50: 3 pM
HCV replicon 1AQ30D; [2]
  IC50: 0.0165 nM
HCV replicon 1AY93H; replicon 1AY93H
  IC50: 4.1 pM
HCV replicon 1A; replicon 1A
  IC50: 2.1 pM
HCV replicon 2B; replicon 2B
  IC50: 2.6 pM

## COC(=O)NC(C(=O)N1CCC[C@H]1c1ncc(-c2ccc3c(c2)cc2n3C(c3cc4c(s3)CCC4)Oc3cc(-c4cnc([C@@H]5CCCN5C(=O)[C@@H](NC(=O)OC)C(C)C)[nH]4)cc(C)c3-2)[nH]1)C1CCOC(C)(C)C1 (single isomer, unassigned) [Compound 853]
HCV replicon 1B; HCV replicon 1B
  IC50: 4.2 pM
HCV replicon 1AQ30D; Hepatitis C virus, read-out: 1A Q30D IC50, HCV replicon 1A Q30D
  IC50: 0.705 nM
HCV replicon 1AY93H; HCV replicon 1A Y93H
  IC50: 85 pM
HCV replicon 1A; HCV replicon 1A
  IC50: > 3.6 pM
HCV replicon 2B; HCV replicon 2B
  IC50: 11 pM

## CCc1ccc(C2Oc3cc(-c4cnc([C@@H]5CCCN5C(=O)C(NC(=O)OC)C5C[C@@H](C)O[C@@H](C)C5)[nH]4)cc(F)c3-c3cc4cc(-c5cnc([C@@H]6CCCN6C(=O)[C@@H](NC(=O)OC)C(C)C)[nH]5)ccc4n32)s1 (single isomer, unassigned) [Compound 156]
HCV replicon 1B; Hepatitis C virus, replicon 1B
  IC50: 1.8 pM
HCV replicon 1AQ30D; [1]
  IC50: 0.019 nM
HCV replicon 1AY93H; replicon 1AY93H
  IC50: 5 pM
HCV replicon 1A; replicon 1A
  IC50: 2 pM
HCV replicon 2B; replicon 2B
  IC50: 5 pM

## CCCc1ccc(C2Oc3cc(-c4cnc([C@@H]5CCCN5C(=O)[C@@H](NC(=O)OC)C(C)C)[nH]4)cc(F)c3-c3cc4cc(-c5cnc([C@@H]6CCCN6C(=O)C(NC(=O)OC)C6C[C@@H](C)O[C@@H](C)C6)[nH]5)ccc4n32)s1 (single isomer, unassigned) [Compound 369]
HCV replicon 1B; Hepatitis C virus, replicon 1B
  IC50: 1.8 pM
HCV replicon 1AQ30D; [2]
  IC50: 0.912 nM
HCV replicon 1AY93H; replicon 1AY93H
  IC50: 73.9 pM
HCV replicon 1A; Hepatitis C virus, replicon 1A
  IC50: 1 pM
HCV replicon 2B; replicon 2B
  IC50: 115 pM
